Experimental data: patent US11160787B2, “4-(4-chlorophenyl)-5-methylene-pyrrol-2-one and 5-methylene-4-(p-tolyl)pyrrol-2-one for use in the treatment of gram negative bacterial infections” (priority 2016, dated 2021)
Entries after “also recorded” stand apart in the source; their conditions may differ.

Experiments:
[1] = system: P. aeruginosa PAO1 pqsA::lux; experiment: pqsA::lux promoter fusion expression in P. aeruginosa PAO1-L biosensor (AQ-dependent quorum sensing); format: cell-based, Pseudomonas aeruginosa; details: for extent of inhibition of light output / pqsA expression at high concentrations: PAO1-L pqsA::lux; for IC50: Pseudomonas aeruginosa, PAO1, read-out: IC50 for inhibition of pqsA::lux expression
Experimental: The expression of rhl and las AHL- and the pqsA AQ-synthase genes was evaluated using lux-based lasl (FIG. 1), rhll (FIG. 2) and pqsA (FIG. 3) chromosomally integrated promoter fusions. Luminescence was quantified as a function of bacterial growth. The applicant further determined that none of the lactams is growth inhibitory at 100 μM using a large number of strains (figure not shown).
To determine the relative inhibitory activities (IC50s) of 4-(4-chlorophenyl)-5-methylene-pyrrol-2-one (Ref. 488) and 5-methylene-4-(p-tolyl)pyrrol-2-one (Ref. 491), dose response curves were constructed using the same biosensor strain (P. aeruginosa PAO1 pqsA::lux; Fletcher et al, 2007; Ilangovan et al 2013). This strain produces light in response to the endogenous production of AQs such as PQS and HHQ.

PqsR [2] = target: T1, PqsR (Pseudomonas aeruginosa, UniProt Q9I4X0); details: read-out: EC50 of PQS for pqsA::lux expression; PAO1-L ΔpqsA pqsA::lux, without lactam; cited from earlier work
T1 construct: By using the AQ-non producing P. aeruginosa strain PAO1-L ΔpqsA, pqsA::lux; endogenous in cells; host or cells: P. aeruginosa PAO1-L ΔpqsA, pqsA::lux
T1 sequence (Q9I4X0 whole entry): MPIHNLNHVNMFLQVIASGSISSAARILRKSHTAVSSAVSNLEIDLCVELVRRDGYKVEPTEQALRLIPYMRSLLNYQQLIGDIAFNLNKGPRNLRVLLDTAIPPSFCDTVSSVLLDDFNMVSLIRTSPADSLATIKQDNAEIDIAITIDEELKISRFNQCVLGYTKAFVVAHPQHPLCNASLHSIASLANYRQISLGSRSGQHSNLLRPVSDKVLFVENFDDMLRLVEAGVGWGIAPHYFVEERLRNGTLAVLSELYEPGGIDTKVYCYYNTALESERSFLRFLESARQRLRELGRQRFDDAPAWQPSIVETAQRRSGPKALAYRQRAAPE

[3] = system: P. aeruginosa strain PAO1-L; experiment: Pyocyanin production by PAO1-L, visually assessed; format: cell-based, Pseudomonas aeruginosa; details: 100 μM (vial 2), 8 h at 37° C., FIG. 5
Source text: Pyocyanin is a blue redox-active secondary metabolite and a putative signalling molecule in P. aeruginosa (Jayaseelan et al, 2014). The pyocyanin biosynthetic (phz) genes are regulated by QS and in part via the transcriptional regulator PqsR acting through PqsE (Rampioni et al 2011).
Although qualitative, this observation offers further confirmation of the inhibitory effects of lactam 4-(4-chlorophenyl)-5-methylene-pyrrol-2-one (Ref. 488) on AQ-dependent QS.

PqsR [4] = target: T1, PqsR; experiment: PQS-dependent expression of pqsA::lux in AQ-non producing PAO1-L ΔpqsA (PqsR antagonism); format: cell-based
Experimental: By using the AQ-non producing P. aeruginosa strain PAO1-L ΔpqsA, pqsA::lux, the EC50 value for the native PqsR agonist, PQS was calculated as ˜2 μM (Ilangovan et al. 2013).
The experiment shown in FIG. 8 was then repeated using 4-(4-chlorophenyl)-5-methylene-pyrrol-2-one (Ref. 488) concentrations of 0, 50, 100 and 200 μM.
A partial agonist is a molecule that can bind to and activate a receptor resulting in a non-complete response compared with a full agonist. […] This contrasts with its activity as an antagonist in the presence of 10 or 40 μM PQS.

PqsABCD = experiment: HHQ production by PAO1-N ΔpqsAHR pBBR-pqsABCD, TLC with AQ biosensor overlay; format: cell-based, Pseudomonas aeruginosa; details: 488 200 μM, overnight in LB, FIG. 13
Source text: To determine whether 4-(4-chlorophenyl)-5-methylene-pyrrol-2-one (Ref. 488) is capable of inhibiting the enzymes (PqsABCD) involved in AQ biosynthesis, the P. aeruginosa PAO1-N ΔpqsAHR was exploited. This mutant cannot produce AQs because the genes coding for the key biosynthetic enzymes (PqsA and PqsH) and regulation (PqsR) have been deleted. To restore AQ production in a PqsR-independent manner in PAO1-N ΔpqsA, the pqsABCD genes were introduced on a plasmid (pBBR pqsABCD; Niewerth et al. 2011). P. aeruginosa PAO1-N ΔpqsAHR and P. aeruginosa PAO1-N ΔpqsAHR pBBR pqsABCD were both incubated overnight in LB with and without 4-(4-chlorophenyl)-5-methylene-pyrrol-2-one (Ref. 488) (200 μM), resuspended to an OD600 1.0. The cultures were extracted with acidified ethyl acetate, the organic phase removed, dried and resuspended in methanol subjected to thin layer chromatography (TLC).
After chromatography using a dichloromethane-methanol mobile phase, the TLC plates were overlaid with a thin agar layer containing the AQ biosensor strain PAO1-L ΔpqsA CTX::pqsA′-luxCDABE (Fletcher et al. 2007) incubated and examined for reporter output (FIG. 13). […] The biosensor strain produces light (FIG. 13 panel C) and pyocyanin (FIG. 13 panel B) in response to AQs that bind to PqsR and activate the pqsA promoter.

[5] = system: PAO1-N ΔpqsAHR pqsA'::lux; experiment: PqsR-independent expression of pqsA'::lux in PAO1-N ΔpqsAHR; format: cell-based, Pseudomonas aeruginosa; details: presence or absence of 40 μM PQS, FIG. 11
Source text: PQS is capable of weakly activating pqsA in the absence of PqsR via a mechanism that is not fully understood but appears to depend on the iron chelating properties of PQS. The aim of this experiment was to clarify whether lactam 4-(4-chlorophenyl)-5-methylene-pyrrol-2-one (Ref. 488) is also inhibitory for pqsA expression via the PqsR independent pathway. As previously described, the pqsA′::lux biosensor based on the triple mutant PAO1-N ΔpqsAHR cannot produce AQs and lacks pqsR but still responds to exogenous PQS. This response is however much weaker that the PqsR-dependent response.

C=C1NC(=O)C=C1c1ccc(C)cc1 [Ref. 491, 5-methylene-4-(p-tolyl)pyrrol-2-one]
extent of inhibition of light output / pqsA expression at high concentrations [1]: did not inhibit pqsA expression as strongly; also recorded: did not give complete knock out at higher concentration | IC50 [1]: 44 µM

CCCCCCCc1[nH]c2ccccc2c(=O)c1O [PQS, 2-heptyl-3-hydroxy-4-(1H)-quinolone]
EC50 (PqsR [2]): ~2000 nM

C=C1NC(=O)C=C1c1ccc(Cl)cc1 [Ref. 488, 4-(4-chlorophenyl)-5-methylene-pyrrol-2-one]
pyocyanin production in culture supernatant [3]: absence of green pigmentation | mode of antagonism of PQS-dependent pqsA::lux expression (PqsR [4]; 488 at 0, 50, 100 and 200 μM, FIG. 9): competitive antagonist | restoration of light output by PQS in the presence of 488 (PqsR [4]; 488 at 50, 100, 200 μM, PAO1-L ΔpqsA, FIG. 9): fully restoring light output in the presence of 50 μM but not 100 μM or 200 μM | partial agonist activity (activation of pqsA expression) (PqsR [4]; PAO1-L ΔpqsA pqsA'::lux, concentrations up to 800 μM, FIG. 10): no partial agonist activity | fold increase of PQS EC50 caused by the lactam (PqsR [4]; fixed concentration of 488 (215 μM), range of PQS concentrations): ~15 fold | effect on HHQ biosynthesis (PqsABCD): did not inhibit HHQ biosynthesis | extent of inhibition of light output / pqsA expression at high concentrations [1]: completely inhibited light output; also recorded: fully knock out the PQS | IC50 [1]: 22 µM | relative inhibition of PqsR-dependent pqsA::lux promoter fusion in screening ([1]; lactams at 100 μM, FIG. 3): most potent inhibitor | effect on PqsR-independent expression of pqsA [5]: small inhibitory effect
